Source: patent publication EP3290412A1, “HIV-1 NUCLEOCAPSID INHIBITORS” (Università degli Studi di Siena, priority 2016, dated 2018)

tested on: Peripheral blood mononuclear cells (PBMC); assay type: cell-based; conditions: human, 7 days
Procedure, shortened: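 Healthy-donor PBMC stimulated 2 days with 5 µg/mL PHA, then seeded at 1x10^5 cells/well in medium with 20 IU/mL IL-2 and exposed to compound for 7 days. Viability measured by MTS (4 h, OD 490 nm). TD50 interpolated from dose versus percent mortality relative to untreated cells.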

Point of comparison: `C[C@H](NC(=O)c1nc(-c2ccc(C(=O)OCc3ccccc3)cn2)nc(O)c1O)C1CCCCC1` [Compound 70, benzyl (S)-6-(4-((1-cyclohexylethyl)carbamoyl)-5,6-dihydroxypyrimidin-2-yl)nicotinate], “Proliferation assay PBMC TD50” value 500 nM. Against it:
- C[C@H](NC(=O)c1nc(-c2cc(C(=O)OCc3ccccc3)ccn2)nc(O)c1O)C1CCCCC1 [Compound 71, benzyl (S)-2-(4-((1-cyclohexylethyl)carbamoyl)-5,6-dihydroxypyrimidin-2-yl)isonicotinate] — 2.8-fold higher, 1420 nM
- CC(NC(=O)c1nc(-c2nccc3ccccc23)nc(O)c1O)C1CCC(F)(F)CC1 (centres unmarked) [Compound 90, N-(1-(4,4-difluorocyclohexyl)ethyl)-5,6-dihydroxy-2-(isoquinolin-1-yl)pyrimidine-4-carboxamide] — 8.5-fold higher, 4270 nM
- Cc1ccnc(-c2nc(O)c(O)c(C(=O)NC3(C4CCCCC4)CC3)n2)c1 [Compound 84, N-(1-cyclohexylcyclopropyl)-5,6-dihydroxy-2-(4-methylpyridin-2-yl)pyrimidine-4-carboxamide] — 6.9-fold higher, 3470 nM
- C[C@H](NC(=O)c1nc(-c2cc3ccccc3cn2)nc(O)c1O)C1CCCCC1 [Compound 72, (S)-N-(1-cyclohexylethyl)-5,6-dihydroxy-2-(isoquinolin-3-yl)pyrimidine-4-carboxamide] — 4.5-fold higher, 2270 nM
- C[C@@H](NC(=O)c1nc(-c2cc(C(=O)NCc3ccccc3)ccn2)nc(O)c1O)C1CCCCC1 [Compound 74, (R)-2-(4-(benzylcarbamoyl)pyridin-2-yl)-N-(1-cyclohexylethyl)-5,6-dihydroxypyrimidine-4-carboxamide] — 3.4-fold higher, 1680 nM
- C[C@H](NC(=O)c1nc(-c2ccc3ccccc3n2)nc(O)c1O)C1CCCCC1 [Compound 75, (S)-N-(1-cyclohexylethyl)-5,6-dihydroxy-2-(quinolin-2-yl)pyrimidine-4-carboxamide] — 14-fold higher, 6900 nM
- Cc1cc(-c2nc(O)c(O)c(C(=O)N[C@H](C)C3CCCCC3)n2)nc2ccccc12 [Compound 73, (R)-N-(1-cyclohexylethyl)-5,6-dihydroxy-2-(4-methylquinolin-2-yl)pyrimidine-4-carboxamide] — 12-fold higher, 5790 nM
